Measurements from patent US6468971B1, “Maintaining kidney function during surgery or trauma” (Board of Supervisors of Louisiana State University and …, priority 1998, dated 2002).
Entries after “also recorded” stand apart in the source; their conditions may differ.

Columns and labels:
[1] = tested on: rats during surgery under isoflurane anesthesia; design: species or system Sprague-Dawley rat; conditions: rat, in vivo
[2] = tested on: human patients during general anesthesia and surgery; conditions: administered 90 minutes before anesthesia; cited from earlier work
[3] = tested on: isoflurane-anesthetized rats under surgery; assay: Renal response to drug given after start of surgery and isoflurane anesthesia; format: in vivo, Sprague-Dawley rat
[4] = tested on: conscious humans; conditions: cited from earlier work
[5] = tested on: rats anesthetized with pentobarbital; conditions: 50 μg i.v.; cited from earlier work
[6] = tested on: conscious rats; conditions: 50 μg i.v., cited from earlier work
[7] = tested on: conscious rats; assay: E-2078 effect on urine flow and sodium excretion in conscious rats (Salas et al.); format: in vivo, rat; conditions: 50 μg i.v., after 15-30 minutes
[8] = intravenous bolus injection during isoflurane anesthesia and surgery
[9] = conscious healthy humans (Rimoy 1991)

Compound: CN1c2ccccc2C(c2ccccc2F)=NCC1CNC(=O)c1ccsc1 (single isomer, unassigned; (+)) [tifluadom, (+)-(1-methyl-2,3-thienyl-carboxyl)-aminomethyl-5-(2-fluorophenyl)H-2,3-dihydro-1,4-benzodiazepine]
- effect on urine flow rate during surgery and isoflurane anesthesia [1]: remained steady (time 10) and consistently increased over time (time 20-90) until a plateau was reached (time 100-120)
- urinary potassium excretion [1]: remained low
- urinary sodium excretion [1]: remained low
- urine flow rate [1]: 20 µL/min
- urine osmolality [1]: remained low

Compound: Clc1cccc(Cl)c1N=C1NCCN1 [clonidine]
- diuresis [2]: significant diuresis during surgery
- losses of sodium and potassium [2]: substantial losses of sodium and potassium
- mean arterial pressure and heart rate [2]: substantial decrease in mean arterial pressure and heart rate

Compound: OC[C@@H](O)[C@@H](O)[C@H](O)[C@H](O)CO [mannitol]
- course of urine flow rate after the peak [3, 8]: not maintained and declined to the impaired levels observed before drug administration
- urinary potassium excretion [3, 8]: increase in urinary sodium and potassium excretion
- urinary sodium excretion [3, 8]: increase in urinary sodium and potassium excretion
- urine flow rate, peak [3, 8]: up to 135 μl/min

Compound: C=C1CC2(CCC(N3CCCC3)C(N(C)C(=O)Cc3ccc(Cl)c(Cl)c3)C2)OC1=O (stereo not shown) [U-62,066E, 3,4-dichloro-N-methyl-N-(3-methylene-2-oxo-8-(1-pyrrolidinyl)-1-oxaspiro(4,5)dec-7-yl)-benzeneacetamide]
- central nervous system effects ([4]; 3.2 μg/kg dose): sedation, significant dysphoria, and no significant euphoria
- diuretic response ([4]; 5 μg/kg intramuscular): pronounced diuretic response
- sodium, potassium, or chloride excretion ([4]; 2 to 6 μg/kg intramuscular): without increases in sodium, potassium, or chloride excretion
- water diuresis ([4]; 2 to 6 μg/kg intramuscular): induced water diuresis
- urine osmolality [4, 9]: decreased urine osmolality
- urine output [4, 9]: significantly increased urine output
- diuretic potency relative to U-50,488H ([4]; in vivo): about twice as potent a diuretic as U-50,488H
- urinary potassium excretion [1]: gradual increase; also recorded: significant and steady increase toward a new plateau level
- urinary sodium excretion [1]: remained low throughout the duration of the experiment
- urine flow rate [1]: remained elevated throughout the 6 hours of the study

Compound: (N-methyl-Tyr^1,N-methyl-Arg^7-D-Leu^8)-dynorphin-A(1-8) ethylamide [E-2078]
- urinary sodium excretion [5]: 0.3±0.1 μEq/min
- urine flow rate [5]: 6.3 ± 1.0 µL/min
- urine flow rate ([6]; after 15-30 minutes): 118 ± 22 µL/min
- urinary sodium excretion ([6]; at 30-45 min): 1.4±0.4 μEq/min
- increase over the baseline flow rate [7]: 78 µL/min

Compound: NS(=O)(=O)c1cc(C(=O)O)c(NCc2ccco2)cc1Cl [furosemide]
- effect on urine flow rate ([3]; continuous intravenous infusion after start of surgery and isoflurane (U-50,488H 100 μg/kg/min)): returned to the impaired pre-drug levels
- urine flow rate, peak ([3]; continuous intravenous infusion after start of surgery and isoflurane (U-50,488H 100 μg/kg/min), saline infusion 55 μl/min): about 200 μl/min
- course of urine flow rate after the peak [3, 8]: declined rapidly
- urine flow rate, peak [3, 8]: about 300 μl/min
